{"source": "patent US9108983B2", "about": "“Pyrrole compounds, a process for their preparation and pharmaceutical compositions containing them” (LES LABORATOIRES SERVIER, priority 2013, dated 2015)", "key": {"[1]": {"tested_on": "RS4;11 leukaemia tumour line", "experiment": "In vitro cytotoxicity (Microculture Tetrazolium Assay)", "assay_type": "cell-based", "details": "RS4;11 cells, exposed for 48 hours, cell viability, read-out: IC50 (nM) MTT RS4;11", "method": "The cytotoxicity studies were carried out on the RS4;11 leukaemia tumour line.\nThe cells are distributed onto microplates and exposed to the test compounds for 48 hours.\nThe cell viability is then quantified by a colorimetric assay, the Microculture Tetrazolium Assay (Cancer Res., 1987, 47, 939-942)."}, "Bcl-2 protein": {"biological_target": "Bcl-2 protein (histag-Bcl-2, UniProtKB P10415) (Homo sapiens (Human), UniProt P10415)", "sequence (P10415 whole entry)": "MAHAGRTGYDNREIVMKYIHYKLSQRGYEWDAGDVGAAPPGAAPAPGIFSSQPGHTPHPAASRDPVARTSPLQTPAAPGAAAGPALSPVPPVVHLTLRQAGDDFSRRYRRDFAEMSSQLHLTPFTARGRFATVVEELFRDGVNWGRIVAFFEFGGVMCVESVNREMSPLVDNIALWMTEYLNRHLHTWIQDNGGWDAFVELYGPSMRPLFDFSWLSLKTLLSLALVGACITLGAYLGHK", "experiment": "Inhibition of Bcl-2 by the fluorescence polarisation technique", "assay_type": "binding", "details": "incubation for 2 hours, read-out: IC50 (nM) Bcl-2 FP", "method": "The fluorescence polarisation tests were carried out on microplates (384 wells). The Bcl-2 protein, labelled (histag-Bcl-2 such that Bcl-2 corresponds to the UniProtKB® primary accession number: P10415), at a final concentration of 2.50×10^−8 M, is mixed with a fluorescent peptide (Fluorescein-[…]), at a final concentration of 1.00×10^−8 M in a buffer solution (Hepes 10 mM, NaCl 150 mM, Tween20 0.05%, pH 7.4), in the presence or absence of increasing concentrations of test compounds. After incubation for 2 hours, the fluorescence polarisation is measured."}}, "note": "Where a name gives a salt, the structure may show the parent alone. Read-outs that look alike come from different tables or passages of the source."}
{"smiles": "Cc1c(C(=O)N(c2ccncc2)c2ccc(O)cc2)cc(-c2cc3c(cc2C(=O)N2Cc4ccccc4C[C@H]2CN2CCN(C)CC2)OCO3)n1C", "note": "[Example 70, N-(4-Hydroxyphenyl)-1,2-dimethy-5-(6-{[(3S)-3-[(4-methylpiperazin-1-yl)methyl]-3,4-dihydroisoquinolin-2(1H)-yl]carbonyl}4,3-benodioxol-5-yl)-N-(pyridin-4-yl)-1H-pyrrole-3-carboxamide hydrochloride]", "values": [{"measurement": "IC50", "setting": "[1]", "value": 63.5, "unit": "nM"}, {"measurement": "IC50", "setting": "Bcl-2 protein", "value": 8.5, "unit": "nM"}]}
{"smiles": "COc1ncc(N(C(=O)c2cc(-c3cc4c(cc3C(=O)N3Cc5ccccc5C[C@H]3CN3CCOCC3)OCO4)n(C)c2C)c2ccc(O)cc2)cn1", "note": "[Example 50, N-(4-Hydroxyphenyl)-N-(2-methoxypyrimidin-5-yl)-1,2-dimethyl-5-(6-{[(3S)-3-(morpholin-4-ylmethyl)-3,4-dihydroisoquinolin-2(1H)-yl]carbonyl}-1,3-benzodioxol-5-yl)-1H-pyrrole-3-carboxamide hydrochloride]", "values": [{"measurement": "IC50", "setting": "[1]; Homo sapiens, RS4-11, 48 h", "value": 33.1, "unit": "nM"}, {"measurement": "IC50", "setting": "Bcl-2 protein", "value": 5.9, "unit": "nM"}]}
{"smiles": "Cc1c(C(=O)N(C)c2ccc(O)cc2)cc(-c2cc(CNC(=O)NCc3ccccc3)ccc2C(=O)N2Cc3ccccc3C[C@H]2C)n1C", "note": "[Example 51, 5-(5-{[(Benzylcarbamoyl)amino]methyl}-2-{[(3R)-3-methyl-3,4-dihydroisoquinolin-2(1H)-yl]carbonyl}phenyl)-N-(4-hydroxyphenyl)-N,1,2-trimethyl-1H-pyrrole-3-carboxamide]", "values": [{"measurement": "IC50", "setting": "[1]; Homo sapiens, RS4-11, 48 h", "value": 354, "unit": "nM"}, {"measurement": "IC50", "setting": "Bcl-2 protein", "value": 26.7, "unit": "nM"}]}
{"smiles": "Cc1c(C(=O)N(c2ccccc2)c2ccc(O)cc2)cc(-c2cc(Cl)ccc2C(=O)N2Cc3ccccc3C[C@H]2CO)n1C", "note": "[Example 38, 5-(5-Chloro-2-{[(3S)-3-(hydroxymethyl)-3,4-dihydroisoquinolin-2(1H)-yl]carbonyl}phenyl)-N-(4-hydroxyphenyl)-1,2-dimethyl-N-phenyl-1H-pyrrole-3-carboxamide]", "values": [{"measurement": "IC50", "setting": "[1]; Homo sapiens, RS4-11, 48 h", "value": 134, "unit": "nM"}, {"measurement": "IC50", "setting": "Bcl-2 protein", "value": 7.5, "unit": "nM"}]}
{"smiles": "COc1ncc(N(C(=O)c2cc(-c3cc(F)c(OC)cc3C(=O)N3Cc4ccccc4C[C@H]3CN3CCOCC3)n(C)c2C)c2ccc(O)cc2)cn1", "note": "[Example 439, 5-(5-Fluoro-4-methoxy-2-{[(3S)-3-(morpholin-4-ylmethyl)-3,4-dihydroisoquinolin-2(1H)-yl]carbonyl}phenyl)-N-(4-hydroxyphenyl)-N-(2-methoxypyrimidin-5-yl)-1,2-dimethyl-1H-pyrrole-3-carboxamide hydrochloride]", "values": [{"measurement": "IC50", "setting": "[1]; Homo sapiens, RS4-11, 48 h", "value": 329, "unit": "nM"}, {"measurement": "IC50", "setting": "Bcl-2 protein", "value": 6.1, "unit": "nM"}]}
{"smiles": "CCNC(=O)NCc1ccc(C(=O)N2Cc3ccccc3C[C@H]2C)c(-c2cc(C(=O)N(C)c3ccc(O)cc3)c(C)n2C)c1", "note": "[Example 52, 5-(5-{[(Ethylcarbamoyl)amino]methyl}-2-{[(3R)-3-methyl-3,4-dihydroisoquinolin-2(1H)-yl]carbonyl}phenyl)-N-(4-hydroxyphenyl)-N,1,2-trimethyl-1H-pyrrole-3-carboxamide]", "values": [{"measurement": "IC50", "setting": "[1]; Homo sapiens, RS4-11, 48 h", "value": 433, "unit": "nM"}, {"measurement": "IC50", "setting": "Bcl-2 protein", "value": 28.9, "unit": "nM"}]}
{"smiles": "COc1cnc(N(C(=O)c2cc(-c3cc(Cl)ccc3C(=O)N3Cc4ccccc4C[C@H]3CN3CCOCC3)n(C)c2C)c2ccc(O)cc2)cn1", "note": "[Example 444, 5-(5-Chloro-2-{[(3S)-3-(morpholin-4-ylmethyl)-3,4-dihydroisoquinolin-2(1H)-yl]carbonyl}phenyl)-N-(4-hydroxyphenyl)-N-(5-methoxypyrazin-2-yl)-1,2-dimethyl-1H-pyrrole-3-carboxamide hydrochloride]", "values": [{"measurement": "IC50", "setting": "[1]; Homo sapiens, RS4-11, 48 h", "value": 181, "unit": "nM"}, {"measurement": "IC50", "setting": "Bcl-2 protein", "value": 5.5, "unit": "nM"}]}
{"smiles": "Cc1c(C(=O)N(c2ccc(O)cc2)c2ccc3c(cnn3C)c2)cc(-c2cc3c(cc2C(=O)N2Cc4ccccc4C[C@H]2CN2CCOCC2)OCO3)n1C", "note": "[Example 14, N-(4-Hydroxyphenyl)-1,2-dlmethyl-N-(1-methyl-1H-indazol-5-yl)-5-(6-{[(3S)-3-(morpholil-4-ylmethyl)-3,4-dihydroisoquinolin-2(1H)-yl]carbonyl}-1,3-benzodioxol-5-yl)-1H-pyrrole-3-carboxamide hydrochloride]", "values": [{"measurement": "IC50", "setting": "[1]", "value": 8.23, "unit": "nM"}, {"measurement": "IC50", "setting": "Bcl-2 protein", "value": 3.7, "unit": "nM"}]}
{"smiles": "Cc1c(C(=O)N(c2ccc(O)cc2)c2cnn(C)c2)cc(-c2cc3c(cc2C(=O)N2Cc4ccccc4C[C@H]2CN2CCOCC2)OCO3)n1CC(F)F", "note": "[Example 95, 1-(2,2-Difluoroethyl)-N-(4-hydroxyphenyl)-2-methyl-N-(1-methyl-1H-pyrazol-4-yl)-5-(6-{[(3S)-3-(morpholin-4-ylmethyl)-3,4-dihydroisoquinolin-2(1H)-yl]carbonyl}-1,3-benzodioxol-5-yl)-1H-pyrrole-3-carboxamide hydrochloride]", "values": [{"measurement": "IC50", "setting": "[1]; Homo sapiens, RS4-11, 48 h", "value": 174, "unit": "nM"}, {"measurement": "IC50", "setting": "Bcl-2 protein", "value": 7, "unit": "nM"}]}
{"smiles": "Cc1ccc(N(C(=O)c2cc(-c3cc4c(cc3C(=O)N3Cc5ccccc5C[C@H]3CN3CCOCC3)OCO4)n(C)c2C)c2ccc(O)cc2)cc1F", "note": "[Example 13, N-(3-Fluoro-4-methylphenyl)-N-(4-hydroxyphenyl)-1,2-dimethyl-5-(6-{[(3S)-3-(morpholin-4-ylmethyl)-3,4-dihydroisoquinolin-2(1H)-yl]carbonyl}-1,3-benzodioxol-5-yl)-1H-pyrrole-3-carboxamide hydrochloride]", "values": [{"measurement": "IC50", "setting": "[1]; Homo sapiens, RS4-11, 48 h", "value": 19.8, "unit": "nM"}, {"measurement": "IC50", "setting": "Bcl-2 protein", "value": 4.4, "unit": "nM"}]}
{"smiles": "Cc1c(C(=O)N(c2ccc(O)cc2)c2cnn(C3CCOC3)c2)cc(-c2cc(F)ccc2C(=O)N2Cc3ccccc3C[C@H]2CN2CCOCC2)n1C", "note": "(single isomer, unassigned) [Example 402, 5-(5-Fluoro-2-{[(3S)-3-(morpholin-4-ylmethyl)-3,4-dihydroisoquinolin-2(1H)-yl]carbonyl}phenyl)-N-(4-hydroxyphenyl)-1,2-dimethyl-N-{1-[(3S or R)-tetrahydrofuran-3-yl]-1H-pyrazol-4-yl}-1H-pyrrole-3-carboxamide hydrochloride]", "values": [{"measurement": "IC50", "setting": "[1]; Homo sapiens, RS4-11, 48 h", "value": 241, "unit": "nM"}, {"measurement": "IC50", "setting": "Bcl-2 protein", "value": 26.1, "unit": "nM"}]}
{"smiles": "COc1ccc(-c2cc(C(=O)N(c3ccc(O)cc3)c3cc(C#N)n(C)c3C)c(C)n2C)c(C(=O)N2Cc3ccccc3C[C@H]2CN2CCOCC2)c1", "note": "[Example 417, N-(5-Cyano-1,2-dimethyl-1H-pyrrol-3-yl)-N-(4-hydroxyphenyl)-5-(4-methoxy-2-{[(3S)-3-(morpholin-4-ylmethyl)-3,4-dihydroisoquinolin-2(1H)-yl]carbonyl}phenyl)-1,2-dimethyl-1H-pyrrole-3-carboxamide hydrochloride]", "values": [{"measurement": "IC50", "setting": "[1]; Homo sapiens, RS4-11, 48 h", "value": 11, "unit": "nM"}, {"measurement": "IC50", "setting": "Bcl-2 protein", "value": 3, "unit": "nM"}]}
{"smiles": "Cc1c(C(=O)N(c2ccccc2)c2ccc(O)cc2)cc(-c2cc3c(cc2C(=O)N2Cc4ccccc4C[C@H]2C)OCO3)n1CCN1CCOCC1", "note": "[Example 97, N-(4-Hydroxyphenyl)-2-methyl-5-(6-{[(3R)-3-methyl-3,4-dihydroisoquinolin-2(1H)-yl]carbonyl}-1,3-benzodioxol-5-yl)-1-[2-(morpholin-4-yl)ethyl]-N-phenyl-1H-pyrrole-3-carboxamide hydrochloride]", "values": [{"measurement": "IC50", "setting": "[1]; Homo sapiens, RS4-11, 48 h", "value": 98, "unit": "nM"}, {"measurement": "IC50", "setting": "Bcl-2 protein", "value": 19, "unit": "nM"}]}
{"smiles": "CC1=C(C(=O)N(c2ccccc2)c2ccc(O)cc2)CC(c2cc(Cl)ccc2C(=O)N2Cc3ccccc3C[C@H]2COCCN2CCOCC2)N1C", "note": "(stereo partly drawn) [Example 29, 5-(5-Chloro-2-{[(3S)-3-{[2-(morpholin-4-yl)ethoxy]methyl}-3,4-dihydroisoquinolin-2(1H)-yl]carbonyl}phenyl)-N-(4-hydroxyphenyl)-1,2-dimethyl-N-phenyl-4H-pyrrole-3-carboxamide hydrochloride]", "values": [{"measurement": "IC50", "setting": "[1]; Homo sapiens, RS4-11, 48 h", "value": 47.5, "unit": "nM"}, {"measurement": "IC50", "setting": "Bcl-2 protein", "value": 6.6, "unit": "nM"}]}
{"smiles": "Cc1c(C(=O)N(c2ccc(O)cc2)c2ccc(F)cc2)cc(-c2cc(Cl)ccc2C(=O)N2Cc3ccccc3C[C@H]2CN2CCOCC2)n1C", "note": "[Example 33, 5-(5-Chloro-2-{[(3S)-3-(morpholin-4-ylmethyl)-3,4-dihydroisoquinolin-2(1H)-yl]carbonyl}phenyl)-N-(4-fluorophenyl)-N-(4-hydroxyphenyl)-1,2-dimethyl-1H-pyrrole-3-carboxamide hydrochloride]", "values": [{"measurement": "IC50", "setting": "[1]; Homo sapiens, RS4-11, 48 h", "value": 57.8, "unit": "nM"}, {"measurement": "IC50", "setting": "Bcl-2 protein", "value": 10.9, "unit": "nM"}]}
{"smiles": "Cc1c(C(=O)N(c2ccc(O)cc2)c2cnn(C)c2)cc(-c2cc(Cl)ccc2C(=O)N2Cc3ccccc3C[C@H]2CN2CCN3CCOC[C@H]3C2)n1C", "note": "[Example 116, 5-(5-Chloro-2-{[(3S)-3-[(9aR)-hexahydropyrazino[2,1-c][1,4]oxazin-8(1H)-ylmethyl]-3,4-dihydroisoquinolin-2(1H)-yl]carbonyl}phenyl)-N-(4-hydroxyphenyl)-1,2-dimethyl-N-(1-methyl-1H-pyrazol-4-yl)-1H-pyrrole-3-carboxamide dihydrochloride]", "values": [{"measurement": "IC50", "setting": "[1]; Homo sapiens, RS4-11, 48 h", "value": 47.8, "unit": "nM"}, {"measurement": "IC50", "setting": "Bcl-2 protein", "value": 3.4, "unit": "nM"}]}
{"smiles": "Cc1c(N(C(=O)c2cc(-c3cc(Cl)ccc3C(=O)N3Cc4ccccc4C[C@H]3CN3CCOCC3)n(C)c2C)c2ccc(O)cc2)cnn1C", "note": "[Example 432, 5-(5-Chloro-2-{[(3S)-3-(morpholin-4-ylmethyl)-3,4-dihydroisoquinolin-2(1H)-yl]carbonyl}phenyl)-N-(1,5-dimethyl-1H-pyrazol-4-yl)-N-(4-hydroxyphenyl)-1,2-dimethyl-1H-pyrrole-3-carboxamide hydrochloride]", "values": [{"measurement": "IC50", "setting": "[1]; Homo sapiens, RS4-11, 48 h", "value": 76.6, "unit": "nM"}, {"measurement": "IC50", "setting": "Bcl-2 protein", "value": 3.4, "unit": "nM"}]}
{"smiles": "Cc1c(C(=O)N(c2ccccc2)c2ccc(O)cc2)cc(-c2cc3c(cc2C(=O)N2Cc4ccccc4C[C@H]2CN2CCOCC2)OCCO3)n1C", "note": "[Example 22, N-(4-Hydroxyphenyl)-1,2-dimethyl-5-(7-{[(3S)-3-(morpholin-4-ylmethyl)-3,4-dihydroisoquinolin-2(1H)-yl]carbonyl}-2,3-dihydro-1,4-benzodioxin-6-yl)-N-phenyl-1H-pyrrole-3-carboxamide hydrochloride]", "values": [{"measurement": "IC50", "setting": "[1]; Homo sapiens, RS4-11, 48 h", "value": 45.7, "unit": "nM"}, {"measurement": "IC50", "setting": "Bcl-2 protein", "value": 6.6, "unit": "nM"}]}
